Legend:
[1] = Moisture sorption of GS-7977 Form 6; type: physicochemical
Description: (§1) In one aspect, the disclosed composition comprises polymorphic Form 6 of GS-7977.

[2] = Chemical stability of GS-7977 Form 6 on open storage; type: physicochemical; conditions: opened conditions at 40° C./75% RH for 30 days
Description: as §1

[3] = system: 1a-H77 sub-genomic replicon, NS5B S282T; experiment: microbe, parasite or virus in culture; type: cell-based, hepatitis C virus; conditions: Hepatitis C virus, read-out: EC50 S282T
Experimental: (§2) (Lam et al., J. Virology (2011) 85(23): 12334-12342; Lam et al., Antimicrob. Agents Chemother. (2012) 56(6): 3359-3368.) S282T mutations in NS5B were created by site-directed mutagenesis in 1a-H77, 1b con-1, and 2a JFH1 sub-genomic replicons. 1b con-1-based chimeric replicons containing 2b, 3a, 4a, 5a, or 6a NS5B were also engineered to harbor the S282T mutation. […] Relative percentages of mutant and WT were assessed by deep sequencing.

[4] = system: 1a-H77 sub-genomic replicon, wild-type NS5B; experiment: Transient replicon assay; type: cell-based; conditions: Hepatitis C virus, read-out: EC50 WT
Experimental: as §2

[5] = system: 1b con-1-based chimeric replicon containing 5a NS5B, wild-type; experiment: Transient replicon assay; type: cell-based; conditions: Hepatitis C virus, read-out: EC50 WT
Experimental: as §2

[6] = system: 1b con-1-based chimeric replicon containing 6a NS5B, wild-type; experiment: Transient replicon assay; type: cell-based; conditions: Hepatitis C virus, read-out: EC50 WT
Experimental: as §2

[7] = system: mixture of 50% S282T and 50% WT in GT2a replicons; experiment: Long-term passaging study with deep sequencing; type: cell-based, hepatitis C virus; conditions: after fifteen days
Description: as §2, with “In vitro studies have shown that S282T is the primary mutation selected by GS-7977 in HCV genotype 1a, 1b and 2a replicon cells. (Lam” for “(Lam”
(See also Han et al., 63rd Annual Meeting of the American Association for the Study of Liver Diseases, Poster 1078, Nov. 11, 2012.)

[8] = system: Hepatitis C virus; conditions: ribavirin alone, patients with CHC; cited from earlier work

| SMILES | hygroscopicity [1] | moisture sorption ([1]; room temperature and 90% RH) | chemical stability [2] | EC50 [3] [nM] | EC50 [4] [nM] | EC50 [5] [nM] | EC50 [6] [nM] | population WT [7] [%] | effect on HCV RNA levels [8] |
| --- | --- | --- | --- | --- | --- | --- | --- | --- | --- |
| CC(C)OC(=O)[C@H](C)N[P@](=O)(OC[C@H]1O[C@@H](n2ccc(=O)[nH]c2=O)[C@](C)(F)[C@@H]1O)Oc1ccccc1 [Form 6] | not hygroscopic | less than 0.2% | chemically stable |  |  |  |  |  |  |
| NC(=O)c1ncn([C@@H]2O[C@H](CO)[C@@H](O)[C@H]2O)n1 [Ribavirin, 1-β-D-ribofuranosyl-1H-1,2,4-triazole-3-carboxamide, reference compound] |  |  |  | 5 | 21 | 1.9 | 5.3 | 96 | did not reduce HCV RNA levels during or after therapy |
